According to the NIST ThermoML archive (doi:10.1016/j.jct.2013.05.012):
Numbers after ± are expanded uncertainties.

Legend:
[1] = 101 kPa, Liquid, Linear variable-path acoustic interferometer
[2] = mn = molality of the nth substance listed, in mol/kg; conditions: 101 kPa, Liquid, variable-path interferometer
[3] = wn = mass fraction of the nth substance listed; conditions: 101 kPa, Liquid; for mass density: Pycnometric method; for viscosity: Capillary tube (Ostwald / Ubbelohde) method; for speed of sound: variable-path interferometer

## O [water]
[1]; 303.15 K
  speed of sound: 1508.4 ± 1.6 m/s
[1]; 313.15 K
  speed of sound: 1526.8 ± 1.6 m/s
[1]; 318.15 K
  speed of sound: 1533 ± 1.6 m/s

## C[C@@H](O)[C@H](N)C(=O)O [L-threonine] + O
[2]; 298.15 K, m1 = 0.0249
  speed of sound: 1501.1 ± 1.6 m/s
[2]; 298.15 K, m1 = 0.0498
  speed of sound: 1505.5 ± 1.6 m/s
[2]; 298.15 K, m1 = 0.0749
  speed of sound: 1510.2 ± 1.6 m/s
[2]; 298.15 K, m1 = 0.0999
  speed of sound: 1515.2 ± 1.6 m/s
[2]; 298.15 K, m1 = 0.125
  speed of sound: 1520.5 ± 1.6 m/s
[2]; 298.15 K, m1 = 0.1499
  speed of sound: 1526.1 ± 1.6 m/s
[2]; 298.15 K, m1 = 0.1749
  speed of sound: 1531.9 ± 1.6 m/s
[2]; 298.15 K, m1 = 0.1999
  speed of sound: 1538.1 ± 1.6 m/s
[2]; 303.15 K, m1 = 0.0249
  speed of sound: 1512.5 ± 1.6 m/s
[2]; 303.15 K, m1 = 0.0498
  speed of sound: 1516.9 ± 1.6 m/s
[2]; 303.15 K, m1 = 0.0749
  speed of sound: 1521.6 ± 1.6 m/s
[2]; 303.15 K, m1 = 0.0999
  speed of sound: 1526.5 ± 1.6 m/s
[2]; 303.15 K, m1 = 0.125
  speed of sound: 1531.7 ± 1.6 m/s
[2]; 303.15 K, m1 = 0.1499
  speed of sound: 1537.3 ± 1.6 m/s
[2]; 303.15 K, m1 = 0.1749
  speed of sound: 1543.2 ± 1.6 m/s
[2]; 303.15 K, m1 = 0.1999
  speed of sound: 1549.4 ± 1.6 m/s
[2]; 308.15 K, m1 = 0.0249
  speed of sound: 1523.8 ± 1.6 m/s
[2]; 308.15 K, m1 = 0.0498
  speed of sound: 1528.1 ± 1.6 m/s
[2]; 308.15 K, m1 = 0.0749
  speed of sound: 1532.7 ± 1.6 m/s
[2]; 308.15 K, m1 = 0.0999
  speed of sound: 1537.5 ± 1.6 m/s
[2]; 308.15 K, m1 = 0.125
  speed of sound: 1542.7 ± 1.6 m/s
[2]; 308.15 K, m1 = 0.1499
  speed of sound: 1548.2 ± 1.6 m/s
[2]; 308.15 K, m1 = 0.1749
  speed of sound: 1553.9 ± 1.6 m/s
[2]; 308.15 K, m1 = 0.1999
  speed of sound: 1560.1 ± 1.6 m/s
[2]; 313.15 K, m1 = 0.0249
  speed of sound: 1530.7 ± 1.6 m/s
[2]; 313.15 K, m1 = 0.0498
  speed of sound: 1534.9 ± 1.6 m/s
[2]; 313.15 K, m1 = 0.0749
  speed of sound: 1539.4 ± 1.6 m/s
[2]; 313.15 K, m1 = 0.0999
  speed of sound: 1544.1 ± 1.6 m/s
[2]; 313.15 K, m1 = 0.125
  speed of sound: 1549.2 ± 1.6 m/s
[2]; 313.15 K, m1 = 0.1499
  speed of sound: 1554.5 ± 1.6 m/s
[2]; 313.15 K, m1 = 0.1749
  speed of sound: 1560.2 ± 1.6 m/s
[2]; 313.15 K, m1 = 0.1999
  speed of sound: 1566.1 ± 1.6 m/s
[2]; 318.15 K, m1 = 0.0249
  speed of sound: 1536.8 ± 1.6 m/s
[2]; 318.15 K, m1 = 0.0498
  speed of sound: 1540.9 ± 1.6 m/s
[2]; 318.15 K, m1 = 0.0749
  speed of sound: 1545.2 ± 1.6 m/s
[2]; 318.15 K, m1 = 0.0999
  speed of sound: 1549.8 ± 1.6 m/s
[2]; 318.15 K, m1 = 0.125
  speed of sound: 1554.8 ± 1.6 m/s
[2]; 318.15 K, m1 = 0.1499
  speed of sound: 1560 ± 1.6 m/s
[2]; 318.15 K, m1 = 0.1749
  speed of sound: 1565.5 ± 1.6 m/s
[2]; 318.15 K, m1 = 0.1999
  speed of sound: 1571.3 ± 1.6 m/s

## OC[C@H]1O[C@@](CO)(O[C@H]2O[C@H](CO)[C@@H](O)[C@H](O)[C@H]2O)[C@@H](O)[C@@H]1O [D-sucrose] + O
[3]; 293.15 K, w1 = 0.05
  mass density: 1018.91 ± 0.27 kg/m3
[3]; 293.15 K, w1 = 0.1
  mass density: 1039.28 ± 0.27 kg/m3
[3]; 293.15 K, w1 = 0.15
  mass density: 1060.31 ± 0.28 kg/m3
[3]; 293.15 K, w1 = 0.2
  mass density: 1082.73 ± 0.29 kg/m3
[3]; 298.15 K, w1 = 0.05
  viscosity: 1.011 ± 0.021 mPa·s
  mass density: 1017.19 ± 0.28 kg/m3
  speed of sound: 1516.5 ± 1.6 m/s
[3]; 298.15 K, w1 = 0.1
  viscosity: 1.183 ± 0.025 mPa·s
  mass density: 1037.45 ± 0.28 kg/m3
  speed of sound: 1531.8 ± 1.6 m/s
[3]; 298.15 K, w1 = 0.15
  viscosity: 1.418 ± 0.029 mPa·s
  mass density: 1058.49 ± 0.29 kg/m3
  speed of sound: 1543.6 ± 1.6 m/s
[3]; 298.15 K, w1 = 0.2
  viscosity: 1.756 ± 0.036 mPa·s
  mass density: 1080.77 ± 0.3 kg/m3
  speed of sound: 1555.3 ± 1.6 m/s
[3]; 303.15 K, w1 = 0.05
  viscosity: 0.9129 ± 0.019 mPa·s
  mass density: 1015.45 ± 0.29 kg/m3
  speed of sound: 1526.6 ± 1.6 m/s
[3]; 303.15 K, w1 = 0.1
  viscosity: 1.061 ± 0.022 mPa·s
  mass density: 1035.61 ± 0.3 kg/m3
  speed of sound: 1541.8 ± 1.6 m/s
[3]; 303.15 K, w1 = 0.15
  viscosity: 1.252 ± 0.026 mPa·s
  mass density: 1056.67 ± 0.3 kg/m3
  speed of sound: 1553 ± 1.6 m/s
[3]; 303.15 K, w1 = 0.2
  viscosity: 1.549 ± 0.032 mPa·s
  mass density: 1078.8 ± 0.31 kg/m3
  speed of sound: 1564.6 ± 1.6 m/s
[3]; 308.15 K, w1 = 0.05
  viscosity: 0.8285 ± 0.017 mPa·s
  mass density: 1013.72 ± 0.3 kg/m3
  speed of sound: 1537.8 ± 1.6 m/s
[3]; 308.15 K, w1 = 0.1
  viscosity: 0.9614 ± 0.02 mPa·s
  mass density: 1033.76 ± 0.31 kg/m3
  speed of sound: 1551.6 ± 1.6 m/s
[3]; 308.15 K, w1 = 0.15
  viscosity: 1.129 ± 0.024 mPa·s
  mass density: 1054.84 ± 0.31 kg/m3
  speed of sound: 1562 ± 1.6 m/s
[3]; 308.15 K, w1 = 0.2
  viscosity: 1.396 ± 0.029 mPa·s
  mass density: 1076.84 ± 0.32 kg/m3
  speed of sound: 1575.2 ± 1.7 m/s
[3]; 313.15 K, w1 = 0.05
  viscosity: 0.7457 ± 0.016 mPa·s
  mass density: 1011.98 ± 0.31 kg/m3
  speed of sound: 1547.7 ± 1.6 m/s
[3]; 313.15 K, w1 = 0.1
  viscosity: 0.8804 ± 0.018 mPa·s
  mass density: 1031.93 ± 0.32 kg/m3
  speed of sound: 1561.8 ± 1.6 m/s
[3]; 313.15 K, w1 = 0.15
  viscosity: 1.025 ± 0.021 mPa·s
  mass density: 1053.01 ± 0.32 kg/m3
  speed of sound: 1570.8 ± 1.6 m/s
[3]; 313.15 K, w1 = 0.2
  viscosity: 1.25 ± 0.026 mPa·s
  mass density: 1074.88 ± 0.33 kg/m3
  speed of sound: 1583.9 ± 1.7 m/s
[3]; 318.15 K, w1 = 0.05
  viscosity: 0.6946 ± 0.015 mPa·s
  mass density: 1010.23 ± 0.32 kg/m3
  speed of sound: 1557.2 ± 1.6 m/s
[3]; 318.15 K, w1 = 0.1
  viscosity: 0.8179 ± 0.017 mPa·s
  mass density: 1030.09 ± 0.33 kg/m3
  speed of sound: 1570.9 ± 1.6 m/s
[3]; 318.15 K, w1 = 0.15
  viscosity: 0.9402 ± 0.02 mPa·s
  mass density: 1051.2 ± 0.34 kg/m3
  speed of sound: 1579.2 ± 1.7 m/s
[3]; 318.15 K, w1 = 0.2
  viscosity: 1.15 ± 0.024 mPa·s
  mass density: 1072.93 ± 0.34 kg/m3
  speed of sound: 1592.8 ± 1.7 m/s
